From US20230146455A1, “TREATMENT OF INFLAMMATORY DISEASES WITH PEPTIDES AND PHARMACEUTICAL COMPOSITIONS” (Yuyu Pharma, Inc., priority 2020, published 2023)
Where “and” joins values, the source holds several entries; their conditions need not be identical. Equal entries are not always repeated. Where a SMILES comes first, the peptide text is derived from it. [ ]: non-standard residue; d: D form. Hyp = O=C(O)[C@@H]1C[C@@H](O)CN1

Tested on: CCL5/RANTES
Assay: Example 9 Luminex, LPS hPBMCs: CCL5/RANTES
Assay type: cell-based, human
Details: PBMC + LPS(5 ug/ml)
Protocol: Treatment Human PBMCs were pretreated with YY-101, YDE-011 and YDE-043 or reference compound; Xiidra® at various concentration (ranging from 1 nM to 100 uM) for 2 h before stimulation. An equal volume of 0.5% DMSO was used as a vehicle control. Then, the cells were treated with LPS at 5 ug/ml. The supernatants from treated cells were harvested at 24 h and placed in a 96 well for Luminex cytokine & chemokine profiling using a Luminex 200 multiplex assay (Luminex; R&D system, USA).
The main study arm with triplicate wells per group in a 24-well plate: • 1. Blank • 2. PBMC: 0.5% DMSO • 3. PBMC+LPS (5 ug/ml) • 4. PBMC+YY-101 100 uM • 5. PBMC+YY-101 10 uM • 6. PBMC+YY-101 1 uM • 7. PBMC+YY-101 0.1 uM • 8. PBMC+YY-101 0.01 uM • 9. PBMC+LPS (5 ug/ml)+Xiidra®100 uM • 10. PBMC+LPS (5 ug/ml)+Xiidra® 10 uM • 11. PBMC+LPS (5 ug/ml)+Xiidra® 1 uM • 12. PBMC+LPS (5 ug/ml)+Xiidra®0.1 uM • 13. PBMC+LPS (5 ug/ml)+Xiidra®0.01 uM • 14. PBMC+LPS (5 ug/ml)+Xiidra®0.001 uM • 15. PBMC+LPS (5 ug/ml)+YY-101 100 uM • 16. PBMC+LPS (5 ug/ml)+YY-101 10 uM • 17. PBMC+LPS (5 ug/ml)+YY-101 1 uM • 18. PBMC+LPS (5 ug/ml)+YY-101 0.1 uM • 19. PBMC+LPS (5 ug/ml)+YY-101 0.01 uM • 20. PBMC+LPS (5 ug/ml)+YY-101 0.001 uM • 21. PBMC+LPS (5 ug/ml)+YDE-011 100 uM • 22. PBMC+LPS (5 ug/ml)+YDE-011 10 uM • 23. PBMC+LPS (5 ug/ml)+YDE-011 1 uM • 24. PBMC+LPS (5 ug/ml)+YDE-011 0.1 uM • 25. PBMC+LPS (5 ug/ml)+YDE-011 0.01 uM • 26. PBMC+LPS (5 ug/ml)+YDE-011 0.001 uM • 27. PBMC+LPS (5 ug/ml)+YDE-043 100 uM • 28. PBMC+LPS (5 ug/ml)+YDE-043 10 uM • 29. PBMC+LPS (5 ug/ml)+YDE-043 1 uM • 30. PBMC+LPS (5 ug/ml)+YDE-043 0.1 uM • 31. PBMC+LPS (5 ug/ml)+YDE-043 0.01 uM • 32. PBMC+LPS (5 ug/ml)+YDE-043 0.001 uM
Multiplex assay was used to measure 30 cytokines and chemokines. The 1:2, 1:10 and 1:200 diluted cell supernatant and serial dilution of the standard were dispensed into a 96 well plate at 50 ul/well. Then, the pre-mixed cocktail of antibody-coated magnetic beads was dispensed at 50 ul/well and incubated at room temperature for 2 h in a horizontal orbital microplate shaker at 800±500 rpm. The beads were washed using a magnetic device to prevent loss. The biotin-antibody was dispensed in 50 ul of each well and incubated at room temperature for 1 h in a shaker at 800±500 rpm. After washing, streptavidin-PE was added at 50 ul/well and incubated at room temperature for 30 min in a shaker under the same conditions. Finally, after washing, wash buffer (100 ul/well) was added to the plate and incubated in a shaker for 2 min. The Luminex™ 200 setting were set according to the manufacturer's protocol. The data was calculated with a standard five-parameter logistic nonlinear regression analysis of the data (xPonent software 4.2, USA). The levels of cytokine/chemokine are normalized to the live cell counts (1×10^5 cells/mL) and presented as concentrations per mL (pg/mL or ng/mL).

[1] = test article 0.001 uM, single replicates (1st, 2nd, 3rd)
[2] = test article 0.01 uM, single replicates (1st, 2nd, 3rd)
[3] = test article 0.1 uM, single replicates (1st, 2nd, 3rd)
[4] = test article 1 uM, single replicates (1st, 2nd, 3rd)
[5] = test article 10 uM, single replicates (1st, 2nd, 3rd)
[6] = test article 100 uM, single replicates (1st, 2nd, 3rd)

`CC(C)C[C@H](NC(=O)[C@H](CCC(N)=O)NC(=O)CNC(=O)[C@@H]1C[C@@H](O)CN1)C(=O)NCC(=O)O` [YDE-043] (H-[Hyp]GQLG-OH; N-terminus and C-terminus assumed) was tested, and the “Concentration (CCL5/RANTES)” value (test article 0.001 uM, Mean) was 207.1 pg/mL, the “MFI (Bead name: CCL5/RANTES)” value (test article 0.001 uM, Mean) was 469.3 and the “conc/live cell (CCL5/RANTES)” value (test article 0.001 uM, Mean) was 42.0 pg/10^5. For the same compound, the “Concentration (CCL5/RANTES)” value [1] was 199.1 pg/mL and 216.5 pg/mL and 205.7 pg/mL, the “MFI (Bead name: CCL5/RANTES)” value [1] was 445.5 and 497.5 and 465.0 and the “conc/live cell (CCL5/RANTES)” value [1] was 45.3 pg/10^5 and 36.1 pg/10^5 and 44.7 pg/10^5. The “Concentration (CCL5/RANTES)” value (test article 0.01 uM, Mean) was 214.6 pg/mL, the “MFI (Bead name: CCL5/RANTES)” value (test article 0.01 uM, Mean) was 491.8 and the “conc/live cell (CCL5/RANTES)” value (test article 0.01 uM, Mean) was 41.1 pg/10^5. The “Concentration (CCL5/RANTES)” value [2] was 219.3 pg/mL and 212.9 pg/mL and 211.7 pg/mL, the “MFI (Bead name: CCL5/RANTES)” value [2] was 506.0 and 486.5 and 483.0 and the “conc/live cell (CCL5/RANTES)” value [2] was 48.7 pg/10^5 and 32.3 pg/10^5 and 42.3 pg/10^5. The “Concentration (CCL5/RANTES)” value (test article 0.1 uM, Mean) was 215.9 pg/mL, the “MFI (Bead name: CCL5/RANTES)” value (test article 0.1 uM, Mean) was 495.8 and the “conc/live cell (CCL5/RANTES)” value (test article 0.1 uM, Mean) was 40.1 pg/10^5. For the same compound, the “Concentration (CCL5/RANTES)” value [3] was 220.2 pg/mL and 200.1 pg/mL and 227.4 pg/mL, the “MFI (Bead name: CCL5/RANTES)” value [3] was 508.5 and 448.5 and 530.5 and the “conc/live cell (CCL5/RANTES)” value [3] was 44.0 pg/10^5 and 35.7 pg/10^5 and 40.6 pg/10^5. The “Concentration (CCL5/RANTES)” value (test article 1 uM, Mean) was 214.4 pg/mL, the “MFI (Bead name: CCL5/RANTES)” value (test article 1 uM, Mean) was 491.2 and the “conc/live cell (CCL5/RANTES)” value (test article 1 uM, Mean) was 40.7 pg/10^5. The “Concentration (CCL5/RANTES)” value [4] was 218.2 pg/mL and 212.9 pg/mL and 212.2 pg/mL, the “MFI (Bead name: CCL5/RANTES)” value [4] was 502.5 and 486.5 and 484.5 and the “conc/live cell (CCL5/RANTES)” value [4] was 37.6 pg/10^5 and 44.3 pg/10^5 and 40.0 pg/10^5. For the same compound, the “Concentration (CCL5/RANTES)” value (test article 10 uM, Mean) was 202.8 pg/mL, the “MFI (Bead name: CCL5/RANTES)” value (test article 10 uM, Mean) was 456.5 and the “conc/live cell (CCL5/RANTES)” value (test article 10 uM, Mean) was 37.6 pg/10^5. The “Concentration (CCL5/RANTES)” value [5] was 212.9 pg/mL and 193.7 pg/mL and 201.8 pg/mL, the “MFI (Bead name: CCL5/RANTES)” value [5] was 486.5 and 429.5 and 453.5 and the “conc/live cell (CCL5/RANTES)” value [5] was 40.9 pg/10^5 and 35.9 pg/10^5 and 36.0 pg/10^5. For the same compound, the “Concentration (CCL5/RANTES)” value (test article 100 uM, Mean) was 163.0 pg/mL, the “MFI (Bead name: CCL5/RANTES)” value (test article 100 uM, Mean) was 341.8 and the “conc/live cell (CCL5/RANTES)” value (test article 100 uM, Mean) was 25.9 pg/10^5. For the same compound, the “Concentration (CCL5/RANTES)” value [6] was 167.0 pg/mL and 159.0 pg/mL, the “MFI (Bead name: CCL5/RANTES)” value [6] was 353.0 and 330.5 and the “conc/live cell (CCL5/RANTES)” value [6] was 26.9 pg/10^5 and 24.8 pg/10^5.
